Source: patent US20230174584A1, “Antibiotic Compounds” (priority 2019, published 2023)
Values after ≈ are worked out from the molar mass of the structure shown.

Assays:
[1] = test system: S. aureus 880 (BR-VRSA), NR-49120; test: MIC assay; format: cell-based, Staphylococcus aureus
Experimental: (§1) The antibacterial activity of the compounds was tested against a panel of bacteria, including Gram-positive bacteria (S. aureus ATCC29213, S. aureus USA300, S. aureus LIM-2, NR-45881, S. aureus HIP13419, NR-46413, E. faecium E155, E. faecium E7314, E. faecium E980, E. faecalis E1246, E. faecalis E7406 and S. pneumonia 153). The antibacterial activity of the compounds was further tested against S. aureus NY-155, NR-46236, S. aureus HIP12864, NR-46074, S. aureus 880 (BR-VRSA), NR-49120, E. faecalis E1246, E. faecalis E7604, as well as some Gram-negative bacteria (Escherichia coli and Klebsiella pneumoniae). Minimum inhibitory concentrations (MICs) in μg/mL were performed according to the CLSI guidelines. From glycerol stocks, bacterial strains were cultured on blood agar plates and incubated at 37° C. for 18 h. A single colony was transferred to tryptic soy broth (TSB) with 0.002% polysorbate 80 (p80). For the Enterococcus, VISA and VRSA strains, the cultures were grown at 37° C. until the optical density of the suspension reached a level equivalent to the 0.5 McFarland standard. The bacterial suspensions were diluted in TSB with 0.002% p80 to reach a bacterial cell density of 10^6 CFU/mL. In case of the other (vancomycin-sensitive) S. aureus strains, the direct colony suspension method was used. For these strains, after transfer of the colonies to TSB with 0.002% p80, they were immediately diluted to 10^6 CFU/mL, instead of incubated prior to this dilution. In the case of S. pneumonia, direct colony suspension was used by immediately suspending multiple colonies from fresh blood agar plates in TSB+0.002% p80 to an OD600 of 0.5 and subsequent dilution to 10^6 CFU mL^−1 in TSB+0.002% p80+5% lysed horse blood. Antibiotic dilutions for this strains were also made in TSB+0.002% p80+5% lysed horse blood. Both agar and microplates containing S. pneumonia were incubated at 37° C. with 5% CO2 for 24 h with constant shaking (600 rpm). […] The cultures were grown to exponential phase (OD600=0.5) at 37° C. […] In polypropylene 96-well microtiter plates, test compounds were added in biological triplicates and serial diluted 2-fold by transfer and mixing from one well to the next to achieve a final volume of 50 μL per well. An equal volume of bacterial suspension (10^6 CFU mL^−1) was added to the wells. The plates were sealed with breathable membranes and incubated at 37° C. for 24 h with constant shaking (600 rpm). In polypropylene microtiter plates, 100 μL of the test compounds was added to the first row in biological triplicates, and 50 μL of media was added to the other wells. The compounds were subjected to serial dilution by transfer and mixing of 50 μL from one well to the next. Subsequently, 50 μL of bacterial suspension (10^6 CFU/mL) was added to the wells. The plates were sealed with breathable membranes and incubated at 37° C. for 24 h with constant shaking (600 rpm). Positive growth control consisted of wells with bacterial suspension and without antibiotic. Negative growth control consisted of solely media without bacterial suspension or antibiotic. The MICs were determined from the median of a minimum of triplicates.

S. aureus ATCC29213 = test: MIC assay; format: cell-based, Staphylococcus aureus
Experimental: as §1

[2] = test system: S. aureus HIP12864, NR-46074; test: MIC assay; format: cell-based, Staphylococcus aureus
Experimental: as §1

[3] = test system: S. aureus LIM-2, NR-25881; test: MIC assay; format: cell-based, Staphylococcus aureus
Experimental: as §1

[4] = test system: S. aureus NY-155, NR-46236; test: MIC assay; format: cell-based, Staphylococcus aureus
Experimental: as §1

E. faecium E155 = test: microbe, parasite or virus in culture; format: cell-based, Enterococcus faecium
Experimental: as §1

E. faecium E7314 = test: microbe, parasite or virus in culture; format: cell-based, Enterococcus faecium
Experimental: as §1

E. faecium E0341 = test: MIC assay; format: cell-based, Enterococcus faecium
MRSA USA300 = test: MIC assay in the presence of sheep serum; format: cell-based, Staphylococcus aureus; details: MRSA USA300, TSB + 0.002% p80 + 50% sheep serum
Experimental: as §1
The activity of the compounds was further assessed against MRSA USA300 strain in the presence of sheep) serum in another MIC assay. The cultures that grew in the presence of serum used TSB+0.002% P80+50% sheep serum as growth media, as opposed to normal MICs done in only TSB+0.002% P80.

S. aureus ATCC29123 = test: Lipid II antagonization assay; format: cell-based, Staphylococcus aureus; details: for visible bacterial growth with lipid II / visible bacterial growth without lipid II: 8×MIC of test compound, 24 h; for visible bacterial growth with lipid II: 5-fold molar excess of lipid II; for bacterial growth after co-incubation with lipid II: 8×MIC; on visible bacterial growth with lipid II: key: − means no visible growth; + means visible growth; on visible bacterial growth without lipid II: key: − means no visible growth; + means visible growth
Experimental: Lipid II in chloroform was added in the appropriate amount (5-fold molar excess compared to test antibiotics) to a 96-well plate and the chloroform was allowed to evaporate. […] Of these dilutions, 50 μL was mixed with the 5-fold molar excess of pure lipid II in triplicates in the plate as well as added to the plate in triplicates without lipid II present. S. aureus ATCC29123 colonies were suspended in TSB with 0.002% p80 by direct colony suspension to an optical density that reached a level equivalent to the 0.5 McFarlan standard. […] The samples were incubated at 37° C. for 24 h with constant shaking (600 rpm) and inspected for visible bacterial growth. Positive growth control consisted of wells with bacterial suspension and without antibiotic or lipid II. Negative growth control consisted of solely media without bacterial suspension, antibiotic or lipid II.
In the antagonization assay, lipid II is co-incubated with the test antibiotics in the presence of bacterial culture. When lipid II binds the glycopeptides, the binding of these antibiotics to their target in the growing bacterial culture is antagonized. This ultimately results in diminished activity of the antibiotics and bacterial growth which normally would not be visible (at 8×MIC) becomes visible. Therefore, this assay could be used to determine if part of the mechanism of action of our compounds involves binding to lipid II.

[5] = S. aureus HIP12864, NR-46074 VISA
[6] = S. aureus NY-155, NR-46236 MRSA
[7] = E. faecium E155, VanA (Table 10)
[8] = E. faecium E7314, VanB (Table 10)
[9] = Staphylococcus aureus, ATCC 29213 / MSSA

SMILES | MIC ([1]; S. aureus 880, NR-49120 VRSA) [µg/mL] | MIC ([1]; strain BR-VRSA) [µg/mL] | MIC (S. aureus ATCC29213; S. aureus ATCC29213 MSSA) [µg/mL] | MIC [2, 5] [µg/mL] | MIC ([3]; S. aureus LIM-2, NR-25881 VISA) [µg/mL] | MIC [4, 6] [µg/mL] | MIC (E. faecium E155; [7]) [µg/mL] | MIC (E. faecium E155; E. faecium E155 VRE (VanA)) [µg/mL] | MIC (E. faecium E7314; [8]) [µg/mL] | MIC (E. faecium E7314; E. faecium E7314 VRE (VanB)) [µg/mL] | MIC (E. faecium E0341; E. faecium E0341, VanA) [µg/mL] | MIC (MRSA USA300) [µg/mL] | visible bacterial growth with lipid II (S. aureus ATCC29123) | visible bacterial growth without lipid II (S. aureus ATCC29123) | MIC ([1]; Staphylococcus aureus, VRSA) [µg/mL] | MIC (S. aureus ATCC29213; [9]) [µg/mL] | MIC ([2]; Staphylococcus aureus, VISA) [µg/mL] | MIC ([3]; Staphylococcus aureus, VISA) [µg/mL] | MIC ([4]; Staphylococcus aureus, MRSA) [µg/mL] | MIC (E. faecium E155; Enterococcus faecium, VRE) [µg/mL] | other results
CCCCCCCNC(N)=Nc1ccc(CN[C@@]2(C)C[C@H](O[C@H]3[C@H](Oc4c5cc6cc4Oc4ccc(cc4Cl)[C@@H](O)[C@@H](NC(=O)[C@@H](CC(C)C)NC)C(=O)N[C@@H](CC(N)=O)C(=O)N[C@H]6C(=O)N[C@H]4C(=O)N[C@H](C(=O)N[C@H](C(=O)O)c6cc(O)cc(O)c6-c6cc4ccc6O)[C@H](O)c4ccc(c(Cl)c4)O5)O[C@H](CO)[C@@H](O)[C@@H]3O)O[C@@H](C)[C@H]2O)cc1 [Compound 5] | 4 (≈ 2.36 µM) | 4 (≈ 2.36 µM) | ≤0.007812 | 0.063 (≈ 0.0372 µM) | 0.031 (≈ 0.0183 µM) | ≤0.008 | 2 (≈ 1.18 µM) | 2 (≈ 1.18 µM) | ≤0.008 | 0.007812 (≈ 0.00461 µM) | 8 (≈ 4.72 µM) | 0.031 | + | − |  |  |  |  |  |  | bacterial growth after co-incubation with lipid II (S. aureus ATCC29123): Bacterial growth was visible
CCCCCCCCNC(N)=Nc1ccc(CN[C@@]2(C)C[C@H](O[C@H]3[C@H](Oc4c5cc6cc4Oc4ccc(cc4Cl)[C@@H](O)[C@@H](NC(=O)[C@@H](CC(C)C)NC)C(=O)N[C@@H](CC(N)=O)C(=O)N[C@H]6C(=O)N[C@H]4C(=O)N[C@H](C(=O)N[C@H](C(=O)O)c6cc(O)cc(O)c6-c6cc4ccc6O)[C@H](O)c4ccc(c(Cl)c4)O5)O[C@H](CO)[C@@H](O)[C@@H]3O)O[C@@H](C)[C@H]2O)cc1 [Compound 6] | 2 (≈ 1.17 µM) |  | ≤0.007812 | ≤0.008 | ≤0.008 | ≤0.008 | 1 (≈ 0.585 µM) | 1 (≈ 0.585 µM) | ≤0.008 | ≤0.007812 | 4 (≈ 2.34 µM) | 0.063 | + | − |  |  |  |  |  |  | bacterial growth after co-incubation with lipid II (S. aureus ATCC29123): Bacterial growth was visible
CCCCCCN(CCCCCC)C(N)=Nc1ccc(CN[C@@]2(C)C[C@H](O[C@H]3[C@H](Oc4c5cc6cc4Oc4ccc(cc4Cl)[C@@H](O)[C@@H](NC(=O)[C@@H](CC(C)C)NC)C(=O)N[C@@H](CC(N)=O)C(=O)N[C@H]6C(=O)N[C@H]4C(=O)N[C@H](C(=O)N[C@H](C(=O)O)c6cc(O)cc(O)c6-c6cc4ccc6O)[C@H](O)c4ccc(c(Cl)c4)O5)O[C@H](CO)[C@@H](O)[C@@H]3O)O[C@@H](C)[C@H]2O)cc1 [Compound 12] | 1 (≈ 0.567 µM) | 1 (≈ 0.567 µM) | ≤0.007812 | 0.063 (≈ 0.0357 µM) | ≤0.008 | ≤0.008 | 1 (≈ 0.567 µM) | 1 (≈ 0.567 µM) | ≤0.008 | ≤0.007812 | 2 (≈ 1.13 µM) | 0.063 |  |  |  |  |  |  |  |  | 
CN[C@H](CC(C)C)C(=O)N[C@H]1C(=O)N[C@@H](CC(N)=O)C(=O)N[C@H]2C(=O)N[C@H]3C(=O)N[C@H](C(=O)N[C@H](C(=O)O)c4cc(O)cc(O)c4-c4cc3ccc4O)[C@H](O[C@H]3C[C@](C)(N)[C@@H](O)[C@H](C)O3)c3ccc(c(Cl)c3)Oc3cc2cc(c3O[C@@H]2O[C@H](CO)[C@@H](O)[C@H](O)[C@H]2O[C@H]2C[C@](C)(NCc3ccc(-c4ccc(Cl)cc4)cc3)[C@@H](O)[C@H](C)O2)Oc2ccc(cc2Cl)[C@H]1O [Oritavancin] |  | 0.25 (≈ 0.139 µM) |  |  |  |  |  |  |  |  |  |  |  |  | 0.25 (≈ 0.139 µM) | 0.25 (≈ 0.139 µM) | 4 (≈ 2.23 µM) | 1 (≈ 0.558 µM) | 0.25 (≈ 0.139 µM) | 0.5 (≈ 0.279 µM) | MIC (E. faecium E7314; Enterococcus faecium, VRE): 0.125 µg/mL (≈ 0.0697 µM)
CCCCCCCCCCNCCN[C@@]1(C)C[C@H](O[C@H]2[C@H](Oc3c4cc5cc3Oc3ccc(cc3Cl)[C@@H](O)[C@@H](NC(=O)[C@@H](CC(C)C)NC)C(=O)N[C@@H](CC(N)=O)C(=O)N[C@H]5C(=O)N[C@H]3C(=O)N[C@H](C(=O)N[C@H](C(=O)O)c5cc(O)c(CNCP(=O)(O)O)c(O)c5-c5cc3ccc5O)[C@H](O)c3ccc(c(Cl)c3)O4)O[C@H](CO)[C@@H](O)[C@@H]2O)O[C@@H](C)[C@H]1O [Telavancin, reference compound] |  | 8 (≈ 4.56 µM) |  |  |  |  |  |  |  |  |  |  | + | − | 8 (≈ 4.56 µM) | 0.125 (≈ 0.0712 µM) | 0.25 (≈ 0.142 µM) | 0.25 (≈ 0.142 µM) | 0.031 (≈ 0.0177 µM) | 4 (≈ 2.28 µM) | MIC (E. faecium E155; Enterococcus faecium, E155): 4 µg/mL (≈ 2.28 µM); MIC (E. faecium E7314; Enterococcus faecium, E7314): ≤ 0.008 µg/mL; MIC (E. faecium E7314; Enterococcus faecium, VRE): ≤ 0.00781 µg/mL; MIC (E. faecium E0341; Enterococcus faecium, E0341): 8 µg/mL (≈ 4.56 µM)
CN[C@H](CC(C)C)C(=O)N[C@H]1C(=O)N[C@@H](CC(N)=O)C(=O)N[C@H]2C(=O)N[C@H]3C(=O)N[C@H](C(=O)N[C@H](C(=O)O)c4cc(O)cc(O)c4-c4cc3ccc4O)[C@H](O)c3ccc(c(Cl)c3)Oc3cc2cc(c3O[C@@H]2O[C@H](CO)[C@@H](O)[C@H](O)[C@H]2O[C@H]2C[C@](C)(N)[C@H](O)[C@H](C)O2)Oc2ccc(cc2Cl)[C@H]1O [Vancomycin, reference compound] |  | >128 |  |  |  |  |  |  |  |  |  |  | + | − | > 128 | 1 (≈ 0.69 µM) | 8 (≈ 5.52 µM) | 8 (≈ 5.52 µM) | 2 (≈ 1.38 µM) | > 128 | MIC (E. faecium E155; Enterococcus faecium, E155): > 128 µg/mL; MIC (E. faecium E7314; Enterococcus faecium, E7314): 128 µg/mL (≈ 88.3 µM); MIC (E. faecium E7314; Enterococcus faecium, VRE): 128 µg/mL (≈ 88.3 µM); MIC (E. faecium E0341; Enterococcus faecium, E0341): > 128 µg/mL
